pEC50: −log10 of the molar value.
What was measured:
HCV 1b genotype replicon = experiment: HCV replicon assay, qRT-PCR (HCV RNA detection), genotype 1b replicon EC50; type: cell-based; settings: Hepatitis C virus, read-out: 1b EC50
Text: HCV replicon cell lines (kindly provided by R. Bartenschlager) isolated from colonies as described by Lohman et al. (Lohman et al. (1999) Science 285: 110-113, expressly incorporated by reference in its entirety) and used for all experiments. The HCV replicon has the nucleic acid sequence set forth in EMBL Accession No.: AJ242651, the coding sequence of which is from nucleotides 1801 to 8406.
The coding sequence of the published HCV replicon was synthesized and subsequently assembled in a modified plasmid pBR322 (Promega, Madison, Wis.) using standard molecular biology techniques. […]
EC50 values of single agent compounds were determined by HCV RNA detection using quantitative RT-PCR, according to the manufacturer's instructions, with a TAQMAN® One-Step RT-PCR Master Mix Reagents Kit (Cat #AB 4309169, Applied Biosystems) on an ABI Model 7500 thermocycler. EC50 values of combinations are similarly determined by HCV RNA detection using quantitative RT-PCR. The TAQMAN primers to use for detecting and quantifying HCV RNA obtained from Integrated DNA Technologies. HCV RNA is normalized to GAPDH RNA levels in drug-treated cells, which is detected and quantified using the Human GAPDH Endogenous Control Mix (Applied Biosystems, AB 4310884E). […] Chemical agent cytotoxicity is evaluated using an MTS assay according to the manufacturer's directions (Promega). […]

HCV 1a genotype replicon = experiment: HCV replicon assay, qRT-PCR (HCV RNA detection), genotype 1a replicon EC50; type: cell-based; settings: Hepatitis C virus, read-out: 1a EC50

## COC(=O)N[C@H](C(=O)N1CCC[C@H]1c1nc(-c2ccc(-c3ccc(-c4c[nH]c([C@@H]5C[C@@]6(CCCO6)CN5C(=O)[C@@H](NC(=O)OC)C(C)C)n4)cc3)cc2)c[nH]1)C(C)C [Compound 83]
HCV 1b genotype replicon
  pEC50: 10.72

## COC(=O)N[C@H](C(=O)N1CCC[C@H]1c1ncc(-c2ccc(-c3ccc(-c4cnc([C@@H]5C[C@H](C6CC6)CN5C(=O)[C@@H](NC(=O)OC)C(C)C)[nH]4)cc3)cc2)[nH]1)C(C)C [Compound A83]
HCV 1a genotype replicon
  pEC50: 10.15

## COC(=O)N[C@H](C(=O)N1C[C@@H](C2CC2)C[C@H]1c1ncc(-c2ccc(-c3ccc(-c4cnc([C@@H]5C[C@H](C6CC6)CN5C(=O)[C@@H](NC(=O)OC)C(C)C)[nH]4)cc3)cc2)[nH]1)C(C)C [Compound A229]
HCV 1b genotype replicon
  pEC50: 10.06

— patent US8778938B2, “Hepatitis C virus inhibitors” (priority 2010, dated 2014)
